Earlier results on one substance are cited in publication PMC10904332 (Science (New York, N.Y.), 2022).

The conditions of this series: known resistance mechanisms.

Some results are limits rather than exact numbers.

Consider bacitracin, for which the “MIC increase from resistance mechanisms” value is more than 254 fold.
